Source: patent publication US10391101B2, “Derivatives of 7-fluoro-8-chloro-5H-dibenzo [B,E,] [1,4] diazepine and use thereof” (VALENTEK LLC, priority 2014, dated 2019)

Tests used:
[1] = Sedation study, total distance traveled; conditions: CF-1 mice, oral 1, 5 and 10 mg/kg
[2] = Sub-chronic toxicity, morphological parameters of blood (neutrophil kinetics); type: in vivo; conditions: rats, intragastric 5 mg/kg daily for 28 days
Source text: The positive effect of the introduction of fluorine has been observed in pre-clinical studies of sub-chronic toxicity. […]. Increase in the number of neutrophils has been observed among rats after administration of aminoglutethimide, which also involves a high risk of agranulocytosis (Ng, W. et. al., Chem Res Toxicol, 2013, 26, 1272-81). Thus changes in the kinetics of neutrophils after intake of the medication can serve as a biomarker to predict the risk of agranulocytosis.
The neutrophil kinetics has been studied within comparative tests of sub-chronic toxicity. Studies have been conducted using rats upon intragastric administration of the substance at a dose of 5 mg/kg. The test substances were administered daily for 28 days. Each experimental group was composed of 10 animals of each sex.

D4 dopamine receptors = molecular target: T1, D4 dopamine receptors (Homo sapiens, UniProt P21917); test: D4 dopamine receptor antagonism, Kb from IC50 (cAMP level); type: cell-based
T1 sequence (P21917 1-419): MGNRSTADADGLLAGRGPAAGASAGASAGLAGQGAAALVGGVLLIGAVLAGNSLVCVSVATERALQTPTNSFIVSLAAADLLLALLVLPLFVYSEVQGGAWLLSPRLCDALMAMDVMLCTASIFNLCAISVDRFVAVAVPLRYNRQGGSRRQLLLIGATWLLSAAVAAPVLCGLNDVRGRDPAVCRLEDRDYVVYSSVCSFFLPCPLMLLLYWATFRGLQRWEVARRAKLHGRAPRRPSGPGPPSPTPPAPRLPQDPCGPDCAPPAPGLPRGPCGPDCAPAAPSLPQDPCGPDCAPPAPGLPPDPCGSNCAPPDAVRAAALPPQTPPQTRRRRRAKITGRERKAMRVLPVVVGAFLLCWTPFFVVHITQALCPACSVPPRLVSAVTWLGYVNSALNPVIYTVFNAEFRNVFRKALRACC
Protocol: (§1) The response on cells expressing D2 receptors was determined according to the change in the cell conductibility induced by redistribution of intracellular calcium. For D4 receptor the level of second messenger—cAMP was taken as the criterion.

[3] = 5-oxytriptophan hyperkinesia (head twitches); type: in vivo; conditions: mice, intragastric 1.0-10.0 mg/kg, 5-oxytriptophan 300 mg/kg i.p.
Protocol: It is known that the precursor of serotonin (5-oxytriptophan, 5-OT) causes a specific hyperkinesia in mice in the form of head-twitching with average duration of 30-60 minutes, which is explained by the activation of serotonergic system of the CNS. […] Each experimental group included 10 male mice weighing 20-22 g. The test substances were administered intragastrically at 1.0, 2.5, 5.0 and 10.0 mg/kg 30 minutes before the intraperitoneal administration of 5-oxytriptophan at a dose of 300 mg/kg. We counted the number of head twitches per 1 minute at intervals of 10 minutes during 60 minutes.

H1 receptor = H1 receptor (Homo sapiens, UniProt P35367); test: H1 histamine receptor functional experiment, antagonism set-up (Fluo-4 NW Ca2+ fluorescence); type: cell-based
Protocol: (§2) The functional activity of compounds on the H4 receptor was determined according to the change in the cell conductibility induced by redistribution of intracellular calcium. The activity for H1 receptor was determined according to the fluorescence of Fluo-4 NW indicator introduced into cells induced by the change in Ca2+ ion concentration in the cytosol.
(§3) Functional experiments were performed in the set-up of agonism and antagonism. In the set-up of agonism the test substance was added directly to the cells expressing the receptor and was determined as the dependence of the response intensity on the substance concentration. Concentration at which the half-peak response (EC50) could be reached served as a measure of activity of agonists.
(§4) In the set-up of antagonism, the ability of test substances to block the action of agonists was assessed. For this purpose, cells were incubated with the test substances, then the reference agonists were added in the system and the functional response was determined.

M4 muscarinic receptor = molecular target: T2, M4 muscarinic receptor (Homo sapiens, UniProt P08173); test: cell-based
T2 sequence (P08173 1-479): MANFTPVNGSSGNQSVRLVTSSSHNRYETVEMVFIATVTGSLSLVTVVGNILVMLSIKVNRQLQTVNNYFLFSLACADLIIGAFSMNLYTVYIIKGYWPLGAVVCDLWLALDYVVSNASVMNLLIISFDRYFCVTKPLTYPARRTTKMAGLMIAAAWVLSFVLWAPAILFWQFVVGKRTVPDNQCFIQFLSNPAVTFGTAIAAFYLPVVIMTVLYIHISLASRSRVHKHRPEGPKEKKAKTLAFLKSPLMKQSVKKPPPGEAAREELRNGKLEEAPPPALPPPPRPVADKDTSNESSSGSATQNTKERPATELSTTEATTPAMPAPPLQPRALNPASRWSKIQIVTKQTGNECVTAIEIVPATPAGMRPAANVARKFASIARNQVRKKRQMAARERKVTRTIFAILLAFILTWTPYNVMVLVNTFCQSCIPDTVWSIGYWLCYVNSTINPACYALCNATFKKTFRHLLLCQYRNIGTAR
Protocol: as §3, §4
The curves of dependence of functional response on the concentration of compounds for the receptor were made; the level of second messenger—cAMP determined according to the fluorescence after the lysis of cell expressing the receptor was taken as a criterion.

D2 dopamine receptors = D2 dopamine receptors (Homo sapiens, UniProt P14416); test: cell-based; conditions: determined by IC50 values in the set-up of antagonism
Protocol: as §1

[4] = Prepulse inhibition of acoustic startle response, ketamine-induced deficit; conditions: mice, ketamine 50 mg/kg i.p.
M1 receptors = molecular target: T3, M1 receptors (Homo sapiens, UniProt P11229); test: M1 receptor activation functional study (Fluo-4 NW Ca2+ fluorescence); type: cell-based; conditions: concentration-response curves, FIG. 2
T3 sequence (P11229 1-460): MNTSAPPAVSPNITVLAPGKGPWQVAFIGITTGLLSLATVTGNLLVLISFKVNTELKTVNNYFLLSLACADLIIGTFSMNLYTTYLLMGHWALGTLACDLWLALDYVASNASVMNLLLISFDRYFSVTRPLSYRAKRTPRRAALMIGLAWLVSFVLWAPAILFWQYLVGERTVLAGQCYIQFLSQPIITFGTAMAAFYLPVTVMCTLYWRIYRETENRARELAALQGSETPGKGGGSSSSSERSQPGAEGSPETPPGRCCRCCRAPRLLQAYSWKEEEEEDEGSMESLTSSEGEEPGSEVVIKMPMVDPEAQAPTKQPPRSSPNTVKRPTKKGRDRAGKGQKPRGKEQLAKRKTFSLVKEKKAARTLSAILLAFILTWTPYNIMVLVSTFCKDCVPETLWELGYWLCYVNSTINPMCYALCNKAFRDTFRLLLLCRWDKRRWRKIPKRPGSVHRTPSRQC
Protocol: The activity was determined according to the fluorescence of Fluo-4 NW indicator introduced into cells induced by the change in Ca2+ ion concentration in the cytosol.

[5] = system: family of adrenergic receptors; test: Panel of G-protein-coupled receptors, adrenergic receptors; conditions: GPCR panel
Source text: In conjunction with the results of preliminary toxicological studies, the data indicates a reduction in the risk of autonomic dysfunctions, such as tachysystole, orthostatism, accommodation disorder, dysfunction of gastrointestinal tract and urination, weight gain, lack of coordination of muscle movements.

[6] = Metabolism and distribution of fluoroclozapine in tissues; conditions: rats, single oral fluoroclozapine 10 mg/kg
H4 receptor = H4 receptor (Homo sapiens, UniProt Q9H3N8); test: H4 histamine receptor functional experiment, agonism set-up (cell conductibility); type: cell-based
Protocol: as §2, §3, §4

H4 receptor, sequence (Q9H3N8 whole entry): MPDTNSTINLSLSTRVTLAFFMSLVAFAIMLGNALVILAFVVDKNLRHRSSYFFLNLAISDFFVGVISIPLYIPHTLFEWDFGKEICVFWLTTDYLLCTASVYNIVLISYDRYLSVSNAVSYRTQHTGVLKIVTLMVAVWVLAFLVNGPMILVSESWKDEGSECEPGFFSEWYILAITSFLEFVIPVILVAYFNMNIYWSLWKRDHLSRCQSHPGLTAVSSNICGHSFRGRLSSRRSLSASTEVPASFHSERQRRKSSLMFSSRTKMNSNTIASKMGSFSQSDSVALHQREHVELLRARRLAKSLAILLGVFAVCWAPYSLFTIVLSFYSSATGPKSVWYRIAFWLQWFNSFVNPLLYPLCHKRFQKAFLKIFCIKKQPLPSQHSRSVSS
H1 receptor, sequence (P35367 whole entry): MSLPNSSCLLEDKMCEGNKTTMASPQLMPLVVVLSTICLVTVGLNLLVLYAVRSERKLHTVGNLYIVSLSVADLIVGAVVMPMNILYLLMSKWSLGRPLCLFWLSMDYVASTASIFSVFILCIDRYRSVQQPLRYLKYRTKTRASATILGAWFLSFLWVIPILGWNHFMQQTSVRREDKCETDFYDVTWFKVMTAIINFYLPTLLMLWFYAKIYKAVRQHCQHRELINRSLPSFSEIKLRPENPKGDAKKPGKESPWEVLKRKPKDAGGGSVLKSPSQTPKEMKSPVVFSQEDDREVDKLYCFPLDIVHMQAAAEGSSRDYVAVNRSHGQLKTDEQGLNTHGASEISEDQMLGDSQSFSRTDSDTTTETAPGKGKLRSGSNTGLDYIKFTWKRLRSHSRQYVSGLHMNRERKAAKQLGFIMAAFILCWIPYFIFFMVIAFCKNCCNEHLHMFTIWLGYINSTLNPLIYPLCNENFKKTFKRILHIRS
D2 dopamine receptors, sequence (P14416 whole entry): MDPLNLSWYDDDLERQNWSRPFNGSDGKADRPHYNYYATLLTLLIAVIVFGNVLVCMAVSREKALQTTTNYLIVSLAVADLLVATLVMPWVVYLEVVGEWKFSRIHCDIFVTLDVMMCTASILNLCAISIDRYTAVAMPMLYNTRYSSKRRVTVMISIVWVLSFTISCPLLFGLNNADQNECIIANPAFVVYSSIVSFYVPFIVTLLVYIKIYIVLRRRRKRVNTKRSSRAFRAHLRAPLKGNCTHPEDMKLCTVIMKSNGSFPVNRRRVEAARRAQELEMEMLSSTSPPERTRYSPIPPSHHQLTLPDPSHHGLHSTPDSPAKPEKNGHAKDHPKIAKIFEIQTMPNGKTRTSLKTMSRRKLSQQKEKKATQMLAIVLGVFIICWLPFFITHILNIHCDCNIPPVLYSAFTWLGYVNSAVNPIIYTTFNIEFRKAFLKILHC

In the case of `CN1CCN(C2=Nc3cc(Cl)c(F)cc3Nc3ccccc32)CC1` [Fluoroclozapine, 11-(4-methylpiperazine-1-yl)-7-fluoro-8-chloro-5H-dibenzo[b,e][1,4]diazepine], the “Sedation: total distance traveled by animals” value [1] is reported as “significantly lower”, the Basophils [2] is reported as 1.0 ± 0.3% and the ESR [2] is reported as 4.2 ± 0.4 mm/h. It also gave an Eosinophils [2] of 0.8 ± 0.4%, a Hemoglobin [2] of 155.4 ± 2.1 g/L and a Ht [2] of 43.2 ± 0.7%. For the same compound, the Lymphocytes [2] was 67.8 ± 2.4%, the MCH [2] was 18.4 ± 0.1 pg and the MCHC [2] was 359.4 ± 1.9 g/L. For the same compound, the MCV [2] was 51.3 ± 0.5 fL, the Metamyelocytes [2] was 0.0 ± 0.0% and the Monocytes [2] was 6.4 ± 0.5%. The Myelocytes [2] was 0.0 ± 0.0%, the “Number of circulating neutrophils in peripheral blood versus control group” value [2] was “did not differ so much different from that of the control group” and the PLT count [2] was 666.4 ± 26.0 10^9/l. The Plasma cells [2] was 0.0 ± 0.0%, the RBC count [2] was 8.43 ± 0.07 10^12/l and the Rt [2] was 77.6 ± 4.6 10^9/l. For the same compound, the Segmented neutrophils [2] was 20.8 ± 1.5%, the Stab neutrophiles [2] was 3.2 ± 0.4% and the WBC count [2] was 11.2 ± 0.8 10^9/l. For the same compound, the Kb (D4 dopamine receptors; determined by IC50 values in the set-up of antagonism) was 50 nM, the “Therapeutic window (Kb, D2/Kb, D4)” value (D4 dopamine receptors; ratio of the applicant's Kb values) was 5.2 and the “Inhibition of twitches induced by 5-OT” value [3] was “most evident inhibition of twitches”. The IC50 (H1 receptor) was 18 nM, the EC50 (M4 muscarinic receptor; M4, agonism set-up) was 16000 nM and the IC50 (M4 muscarinic receptor; M4, antagonism set-up) was 4800 nM. For the same compound, the Kb (D2 dopamine receptors) was 260 nM, the “Restoration of PPI at a dose of 10 mg/kg” value ([4]; 10 mg/kg) was “comparable to clozapine activity at a dose of 5 mg/kg” and the “Restoration of the PPI deficit caused by ketamine” value ([4]; doses of 5 and 10 mg/kg) was “statistically significant dose-dependent restoration of the PPI deficit”. The “Functional response on M1 receptor (agonism)” value (M1 receptors) was “virtually no effect on M1 receptors”, the “Activity in relation to adrenergic receptors” value [5] was “relatively weak activity” and the “Concentrations of parent and metabolite in the brain” value [6] was “consistent”. The Metabolism [6] was “is metabolized to desmethylfluoroclozapine in rats” and the EC50 (H4 receptor) was 170 nM.
